# Earlier results, collected in patent US20150098993A1, “COMPOSITIONS, PROCESS OF PREPARATION OF SAID COMPOSITIONS AND METHOD OF TREATING INFLAMMATORY DISEASES” (priority 2011, published 2015).
# Experiments:
# [1] = biological target: T1, AT1 receptor (Homo sapiens, UniProt P30556); settings: AT1 vs AT2 receptor
# T1 sequence (P30556 1-359): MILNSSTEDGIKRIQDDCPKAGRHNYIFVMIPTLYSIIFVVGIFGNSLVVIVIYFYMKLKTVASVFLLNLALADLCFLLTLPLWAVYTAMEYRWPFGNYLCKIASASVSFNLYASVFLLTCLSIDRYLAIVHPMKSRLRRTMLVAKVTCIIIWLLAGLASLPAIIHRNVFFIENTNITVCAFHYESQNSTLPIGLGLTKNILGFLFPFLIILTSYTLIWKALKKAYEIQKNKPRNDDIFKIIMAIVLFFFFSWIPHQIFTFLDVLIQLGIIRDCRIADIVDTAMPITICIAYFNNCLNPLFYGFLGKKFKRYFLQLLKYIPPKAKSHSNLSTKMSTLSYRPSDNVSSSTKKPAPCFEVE
# [2] = not given; remark: listed apart in the source
# [3] = not given; remark: listed apart in the source
# [4] = tested on: mice; settings: in mice
# [5] = in vivo
# [6] = tested on: male BALB/c mice; settings: apremilast 5 and 25 mg/kg, dexamethasone 1 mg/kg; daily, oral; McCann
# [7] = tested on: DBA/1 mice; settings: DBA/1 mice immunized with bCII/CFA; Dalbeth
compound,measurement,setting,value
"CCCc1nc(C(C)(C)O)c(C(=O)OCc2oc(=O)oc2C)n1Cc1ccc(-c2ccccc2-c2nnn[nH]2)cc1 [(5-methyl-2-oxo-2H-1,3-dioxol-4-yl)methyl 4-(2-hydroxypropan-2-yl)-2-propyl-1-({4-[2-(2H-1,2,3,4-tetrazol-5-yl)phenyl]phenyl}methyl)-1H-imidazole-5-carboxylate]",T½,in vivo,13 h
same,half-life,in vivo,about 13 hours
same,penetration of red blood cells,in vivo,does not penetrate red blood cells
same,greater affinity for the AT1 receptor than for the AT2 receptor,[1],"> 12,500 fold"
same,protein binding,[2],99%
same,solubility in methanol,[3]; methanol,sparingly soluble
same,solubility in water,[3]; water,practically insoluble
same,maximum tolerated dose,[4],25 mg/kg
same,side effects of therapy,[5],"dehydration (dry mouth, excessive thirst, muscle pain or cramps, nausea and vomiting, weakness), dizziness, low blood pressure, and slow or irregular heartbeat"
"CCOc1cc([C@@H](CS(C)(=O)=O)N2C(=O)c3cccc(NC(C)=O)c3C2=O)ccc1OC [Apremilast, (S)-N-{2-[1-(3-Ethoxy-4-methoxyphenyl)-2-methanesulfonylethyl]-1,3-dioxo-2,3-dihydro-1H-isoindol-4-yl}acetamide]","arthritis severity, as measured by clinical score",[6],significantly suppressed arthritis severity
"O=C(Nc1c(Cl)cncc1Cl)c1ccc(OC(F)F)c(OCC2CC2)c1 [CW304, 3-(cyclopropylmethoxy)-N-(3,5-dichloropyridin-4-yl)-4-(difluoromethoxy)benzamide]",Cmax,in vivo,7040 ng/mL
same,T½,in vivo,12 to 14 h
same,absolute bioavailability,in vivo,79%
same,solubility in acetone,[3]; acetone,freely soluble
same,solubility in ethanol,[3]; ethanol,sparingly soluble
same,maximum tolerated dose,[4],2 mg/kg
same,side effects of therapy,[5],"gastrointestinal (GI) events including nausea, diarrhea, and weight loss"
"Cc1ccc(NC(=O)c2ccc(CN3CCN(C)CC3)cc2)cc1Nc1nccc(-c2cccnc2)n1 [Imatinib, N-(4-methyl-3-{[4-(pyridin-3-yl)pyrmidin-2-yl]amino}phenyl)-4-[(4-methylpiperazin-1-yl)methyl]benzamide]",Tmax,in vivo,1.2 h
same,maximum levels achieved after dosing (time),in vivo,2 to 4 h
CCCc1nc(C(C)(C)O)c(C(=O)OCc2oc(=O)oc2C)n1Cc1ccc(-c2ccccc2-c2nnn[nH]2)cc1 [Olmesartan medoxomil],absolute bioavailability,in vivo,about 26%
"CCOC(=O)[C@H](CCc1ccccc1)N[C@@H](C)C(=O)N1Cc2ccccc2C[C@H]1C(=O)O [Quinapril, (3S)-2-[(2S)-2-{[(2S)-1-ethoxy-1-oxo-4-phenylbutan-2-yl]amino}propanoyl]-1,2,3,4-tetrahydroisoquinoline-3-carboxylic acid]",time of peak plasma concentration,following oral administration,within one hour
same,T½,in vivo,13 h
same,extent of absorption,in vivo,at least 60%
same,half-life,in vivo,2 h
same,"half-life, prolonged terminal phase",terminal phase,25 h
same,severity of collagen-induced arthritis,[7],reduced the severity
same,protein binding,[2],about 97%
same,solubility in aqueous solvents,[3]; aqueous solvents,freely soluble
same,maximum tolerated dose,[4],25 mg/kg
